According to ChEMBL document CHEMBL1201862, “PubChem BioAssay data set” (2004):
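Where inhibition never reached the appropriate level, the endpoint shown equals the highest concentration tested. Otherwise, values were interpolated linearly from a five-concentration, 48-hour dose response in 96-well plates. At the GI50, growth is halved.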 The source made the active and inactive calls. Cut-off read from the data, not from the text of the source: active = GI50 up to about 1.1 µM and inactive = higher.

Tests used:
Test in all cases: DTP human tumour cell line panel, 48 h
HOP-18 = tested on: HOP-18
LXFL 529 = tested on: LXFL 529
KM-20L2 = tested on: KM-20L2
XF498 = tested on: XF498
M19-MEL = tested on: M19-MEL
DLD-1 = tested on: DLD-1
DMS-114 = tested on: DMS-114
BT-549 = tested on: BT-549
RXF 631 = tested on: RXF 631

Row | SMILES | GI50 (HOP-18) | GI50 (LXFL 529) | GI50 (KM-20L2) | GI50 (XF498) | GI50 (M19-MEL) | GI50 (DLD-1) | GI50 (DMS-114) | GI50 (BT-549) | GI50 (RXF 631)
1 | BrC1(Br)C2/C=C\CCCCC21 (stereo unspecified) | > 100 µM (inactive) | > 100 µM (inactive) | > 100 µM (inactive) | > 100 µM (inactive) | > 100 µM (inactive) |  |  |  | 
2 | Cc1ccc(Oc2ccc(C)cc2N)cc1 | > 100 µM (inactive) | > 100 µM (inactive) | > 100 µM (inactive) |  | > 100 µM (inactive) | 66.1 µM (inactive) | 49.4 µM (inactive) |  | 
3 | Clc1ccc(/C=N/C23CC4CC(CC(C4)C2)C3)cc1Cl |  |  |  |  |  |  |  | > 10 µM (inactive) | 
4 | O=C(O)c1ccccc1C(=O)OCC1CCCN2CCCCC12 (stereo unspecified) |  |  |  |  |  |  |  | > 100 µM (inactive) | 
5 | NCCSc1nc(N)c2ncn(C3OC(CO)C(O)C3O)c2n1 (stereo unspecified) | > 100 µM (inactive) |  | > 100 µM (inactive) | > 100 µM (inactive) | > 100 µM (inactive) | > 100 µM (inactive) | > 100 µM (inactive) |  | 
6 | COC(=O)c1c(C)nc(C)c(NO)c1-c1ccccc1C(F)(F)F |  |  |  |  |  |  |  | 16.7 µM (inactive) | 
7 | COc1ccc2c(c1)CCc1c-2n(CCN(C)C)c2ccc(OC)cc12 |  |  |  |  |  |  |  | 29.1 µM (inactive) | 
8 | N#CSC#Cc1ccc(C#CSC#N)cc1 |  |  |  |  |  |  |  | 17.9 µM (inactive) | 
9 | O=C(CN(C(=O)OC12CC3CC(CC(C3)C1)C2)C(=O)OC12CC3CC(CC(C3)C1)C2)Oc1ccc([N+](=O)[O-])cc1 |  |  |  |  |  |  |  | > 100 µM (inactive) | 
10 | O=C1C(Cl)=C(N2CCN(C3=C(Cl)C(=O)c4ccccc4C3=O)CC2)C(=O)c2ccccc21 |  | 0.297 µM (active) | 3.78 µM (inactive) | 1.36 µM (inactive) | 1.53 µM (inactive) | 0.428 µM (active) | 1.34 µM (inactive) | 1.73 µM (inactive) | 1.85 µM (inactive)
11 | COc1ccc2c(NCCCCCCNc3c4ccccc4nc4cc(OC)ccc34)c3ccccc3nc2c1 | 2.15 µM (inactive) | 0.04 µM (active) | 0.065 µM (active) |  | 0.0484 µM (active) | 0.242 µM (active) | 0.1 µM (active) | 1.3 µM (inactive) | 0.126 µM (active)
12 | O=c1o[nH]/c(=N/c2ccccc2)n1-c1ccccc1 |  |  |  |  |  |  |  | > 100 µM (inactive) | 
13 | Cc1ccc(C(=O)N(C(C)C)C(C)C)cc1/N=N/N(C)C |  | 31.2 µM (inactive) | > 100 µM (inactive) |  | > 100 µM (inactive) | 77.4 µM (inactive) |  | > 100 µM (inactive) | 
14 | COC(=O)C(=O)C(C(C)=O)C(=O)NCc1ccccc1 (stereo unspecified) | > 100 µM (inactive) | > 100 µM (inactive) | > 100 µM (inactive) | > 100 µM (inactive) | > 100 µM (inactive) | > 100 µM (inactive) | > 100 µM (inactive) |  | 
15 | C1COC(NC(C2CC2)C2CC2)=N1 [RILMENIDINE] |  |  |  |  |  |  |  | > 100 µM (inactive) | 
16 | CC1(c2ccc(F)cc2)C2C(=O)NC(=O)C1C(=O)NC2=O (stereo unspecified) |  | > 100 µM (inactive) | > 100 µM (inactive) | > 100 µM (inactive) | > 100 µM (inactive) | > 100 µM (inactive) | > 100 µM (inactive) |  | 
17 | C/C(=N/NC(=S)N(C)C)c1ccccc1O |  |  |  |  |  |  |  | 10.4 µM (inactive) | 
18 | CCc1cccc(C(C)CC)c1NC(=O)C(=O)Cc1nc2ccccc2o1 (stereo unspecified) |  | > 50 µM (inactive) | > 50 µM (inactive) | > 50 µM (inactive) | > 50 µM (inactive) | > 50 µM (inactive) | > 50 µM (inactive) |  | 
19 | CC(=O)N1C=Cc2c(c(C)c3c([nH]c4ccccc43)c2C)C1 |  |  |  |  |  |  |  | 3.33 µM (inactive) | 
20 | CCCN1CC=CCC1 | > 100 µM (inactive) | > 100 µM (inactive) | > 100 µM (inactive) | > 100 µM (inactive) | > 100 µM (inactive) | > 100 µM (inactive) | > 100 µM (inactive) |  | 
21 | CC(=O)OCCOCCN1CCN(C2=C(Cl)C(=O)c3c(O)ccc(O)c3C2=O)CC1 |  |  |  |  |  |  |  | 0.776 µM (active) | 
22 | O=[N+]([O-])c1cccc(C2=NOC3C4CCC(C4)C23)c1 (stereo unspecified) | > 100 µM (inactive) | > 100 µM (inactive) |  |  | > 100 µM (inactive) | > 100 µM (inactive) | > 100 µM (inactive) |  | > 100 µM (inactive)
23 | CCC1CN2CCc3c([nH]c4ccccc34)C2C[C@@H]1CC(=O)N(C)C (stereo partly specified) | > 100 µM (inactive) | > 100 µM (inactive) | > 100 µM (inactive) | > 100 µM (inactive) | > 100 µM (inactive) | > 100 µM (inactive) | > 100 µM (inactive) |  | 
24 | Oc1cc(-c2ccccn2)nc2cccc(F)c12 | > 100 µM (inactive) | 74.1 µM (inactive) | > 100 µM (inactive) |  | > 100 µM (inactive) | > 100 µM (inactive) | > 100 µM (inactive) |  | > 100 µM (inactive)
25 | COc1ccc(Nc2[nH]c(C(C)=O)c(N)c2C(=S)Nc2ccccc2)cc1 |  |  |  |  |  |  |  | 78 µM (inactive) | 
